Test results reported in article PMC10385824, “Antiproliferative and Tubulin-Destabilising Effects of 3-(Prop-1-en-2-yl)azetidin-2-Ones and Related Compounds in MCF-7 and MDA-MB-231 Breast Cancer Cells” (Pharmaceuticals, 2023).
Where two headings read alike, the source gives them in different places.

How the values were obtained:
[1] = tested on: OVCAR-8; test: NCI-60 SRB screen, ovarian cancer; format: cell-based, human; conditions: Homo sapiens, OVCAR-8, 48 h
[2] = tested on: NCI/ADR-RES; test: NCI-60 SRB screen, ovarian cancer; format: cell-based, human; conditions: Homo sapiens, 48 h
[3] = tested on: UO-31; test: NCI-60 SRB screen, renal cancer; format: cell-based, human; conditions: Homo sapiens, UO-31, 48 h
[4] = tested on: SF295; test: NCI-60 SRB screen, CNS cancer; format: cell-based, human; conditions: Homo sapiens, SF-295, 48 h
[5] = tested on: U251; test: NCI-60 SRB screen, CNS cancer; format: cell-based, human; conditions: Homo sapiens, U-251, 48 h
[6] = tested on: CAKI-1; test: NCI-60 SRB screen, renal cancer; format: cell-based, human; conditions: Homo sapiens, CAKI-1, 48 h
[7] = tested on: OVCAR-3; test: NCI-60 SRB screen, ovarian cancer; format: cell-based, human; conditions: Homo sapiens, OVCAR-3, 48 h
[8] = tested on: OVCAR-4; test: NCI-60 SRB screen, ovarian cancer; format: cell-based, human; conditions: Homo sapiens, OVCAR-4, 48 h
[9] = tested on: A498; test: NCI-60 SRB screen, renal cancer; format: cell-based, human; conditions: Homo sapiens, A498, 48 h
[10] = tested on: UACC-62; test: NCI-60 SRB screen, melanoma; format: cell-based, human; conditions: Homo sapiens, UACC-62, 48 h
[11] = tested on: NCI 60 human cancer cell line panel; test: NCI 60 cell line screen (SRB), panel values
[12] = tested on: NCI-H332M; test: NCI-60 SRB screen, non-small cell lung cancer; format: cell-based; conditions: Homo sapiens, 48 h
[13] = tested on: RPMI-8226; test: NCI-60 SRB screen, leukemia; format: cell-based, human; conditions: Homo sapiens, RPMI-8226, 48 h
[14] = tested on: SK-MEL-28; test: NCI-60 SRB screen, melanoma; format: cell-based, human; conditions: Homo sapiens, SK-MEL-28, 48 h
[15] = tested on: IGROV1; test: NCI-60 SRB screen, ovarian cancer; format: cell-based, human; conditions: Homo sapiens, IGROV-1, 48 h
[16] = tested on: TK-10; test: NCI-60 SRB screen, renal cancer; format: cell-based, human; conditions: Homo sapiens, TK-10, 48 h
[17] = tested on: HCT-116; test: NCI-60 SRB screen, colon cancer; format: cell-based, human; conditions: Homo sapiens, HCT-116, 48 h
[18] = tested on: purified bovine brain tubulin; test: Tubulin polymerization assay (light scattering, BK006 kit); format: biochemical; conditions: compound at 10 μM
Procedure, shortened: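 Compounds tested at 10 µM against vehicle (1% DMSO or EtOH) with bovine brain tubulin, 3 mg/mL, in pH 6.9 PIPES buffer containing 1 mM GTP and 10% glycerol, 37 °C. Light scattering at 340 nm tracked microtubule formation; average of two independent runs reported.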

[19] = tested on: SK-MEL-2; test: NCI-60 SRB screen, melanoma; format: cell-based, human; conditions: Homo sapiens, SK-MEL-2, 48 h
[20] = tested on: MDA-MB-468; test: NCI-60 SRB screen, breast cancer; format: cell-based, human; conditions: Homo sapiens, MDA-MB-468, 48 h
[21] = tested on: SNB-75; test: NCI-60 SRB screen, CNS cancer; format: cell-based, human; conditions: Homo sapiens, SNB-75, 48 h
[22] = tested on: ACHN; test: NCI-60 SRB screen, renal cancer; format: cell-based, human; conditions: Homo sapiens, 48 h
[23] = tested on: RXF 393; test: NCI-60 SRB screen, renal cancer; format: cell-based, human; conditions: Homo sapiens, RXF 393, 48 h
[24] = tested on: A549/ATCC; test: NCI-60 SRB screen, non-small cell lung cancer; format: cell-based, human; conditions: Homo sapiens, A549, 48 h
[25] = tested on: MOLT-4; test: NCI-60 SRB screen, leukemia; format: cell-based, human; conditions: Homo sapiens, MOLT-4, 48 h
[26] = tested on: CCRF-CEM; test: NCI-60 SRB screen, leukemia; format: cell-based; conditions: Homo sapiens, 48 h
[27] = tested on: K-562; test: NCI-60 SRB screen, leukemia; format: cell-based, human; conditions: Homo sapiens, K562, 48 h
[28] = tested on: MCF-7; test: cells; conditions: Homo sapiens, MCF7, 48 h

Compound `C=CC=CC1C(=O)N(c2cc(OC)c(OC)c(OC)c2)C1c1ccc(OC)cc1` (centres unmarked) [11h, 3-(Buta-1,3-dienyl)-4-(4-methoxyphenyl)-1-(3,4,5-trimethoxyphenyl)azetidin-2-one] has a GI50 [1] of 37.4 nM, a GI50 [2] of 17.3 nM and a GI50 [3] of 216 nM. For the same compound, the GI50 [4] was 30.9 nM, the GI50 [5] was 32.2 nM and the GI50 [6] was 58.9 nM. The GI50 [7] was 25.2 nM, the GI50 [8] was 37.3 nM and the GI50 [9] was 18.3 nM. The GI50 [10] was 26.7 nM, the GI50 ([11]; Homo sapiens, 60 cell, read-out: Mean GI50, mean over all NCI 60 cell lines) was less than 91.2 nM and the CC50 ([11]; Homo sapiens, 60 cell, read-out: Mean LC50) was 77600 nM. The IC (TGI (total growth inhibition)) ([11]; Homo sapiens, 60 cell, read-out: Mean TGI) was 8910 nM, the GI50 ([11]; read-out: Mean GI50, mean over all NCI 60 cell lines) was 58.9 nM and the GI50 [12] was 62.6 nM. For the same compound, the GI50 [13] was 38.4 nM, the GI50 [14] was 16000 nM and the GI50 [15] was 50.7 nM. It also gave a GI50 [16] of 61.7 nM, a GI50 [17] of 26.4 nM and a Vmax ([18]; 37 °C, 340 nm) of 0.0035 mOD/min. The “Fold Reduction in Vmax” value ([18]; relative to vehicle) was 2.9, the GI50 [19] was 3250 nM and the GI50 [20] was 23.3 nM. For the same compound, the GI50 [21] was 30.7 nM, the GI50 [22] was 60.7 nM and the GI50 [23] was 30.1 nM. It also gave a GI50 [24] of 36.4 nM, a GI50 [25] of 36.9 nM and a GI50 [26] of 37.8 nM. It also gave a GI50 [27] of 41 nM and a GI50 [28] of 33.5 nM.
